Data from patent US5500217A, “Personal care formulations” (priority 1991, dated 1996).
Counter-ions that a name gives are not always drawn.

What was measured:
[1] = tested on: Pseudomonas aeruginosa; test: Challenge test in shampoo, number of surviving (viable) bacteria; type: cell-based, Pseudomonas aeruginosa (ATCC 19429)
Method: (§1) Further aspects of the present invention are described in the following illustrative examples. Unless otherwise stated all refer to parts by weight. Also, personal care formulations in accordance with the present invention were subjected to evaluation of the antimicrobial properties of the composition. The anti-microbial evaluation was effected, under aseptic conditions throughout, in the following manner.
(§2) In the anti-microbial evaluation, the formulations were tested for anti-microbial activity against bacteria and/or fungi. The bacteria used were either Pseudomonas aeruginosa or Staphylococcusaureus. The fungus used was Candida albicans.
Aliquots (4 parts) of the above shampoo were then prepared with concentrations of the biocides indicated in Table 3 at 500 and 125 ppm of active ingredient.
The above samples were then challenged with a 0.2 parts by volume inoculum of a 24 hour culture of Pseudomonas aeruginosa (ATCC 19429) containing approximately 1×10^8 colony forming units (cfu's) per milliliter. The samples were then incubated in the dark at 25° C., 1 milliliter samples taken after 24 hours, 48 hours and 7 days and the number of surviving bacteria determined.
The procedure of Examples 4-14 were repeated using the 1:1 silver complex of N-methyl-N-hydroxythiobenzamide at four different concentrations.

[2] = tested on: Pseudomonas aeruginosa; test: Anti-microbial challenge test in protein-containing shampoo (MLC, two challenges); type: cell-based, Pseudomonas aeruginosa (ATCC 19429); details: viable count < 10^2 cells cm^-3; for MLC, Challenge 1, 48h / MLC, Challenge 1, 7d: first challenge; for MLC, Challenge 1, 7d / MLC, Challenge 2, 7d: 7 days
Method: as §1, §2
To aliquots (20 parts) of the shampoo formulation prepared as described were added various anti-microbial agents at concentrations of 125, 62.5, 31.25, 7.8 and 1.56 ppm of active ingredient, not all of the anti-microbial agents being used at all of these levels. The anti-microbial agents, and the levels used are as set out in Table One.
One sample of a mixture of the shampoo formulation and the anti-microbial agent was stored for one month (4 weeks) at 40° C. and a duplicate sample of the mixture was stored for one month at ambient temperature (about 20° C.).
The variants thus obtained were then challenged with a 0.2 parts by volume inoculum of a 24 hour culture of Pseudomonas aeruginosa (ATCC 19429) containing approximately 1×10^8 colony forming units (cfu's) per cm^3. The variants were than incubated in the dark at 25° C., and samples (one cm^3) were taken after 24 hours, 48 hours and 7 days. The number of surviving bacteria was determined by the decimal dilution method and the viable cells enumerated by incubation of the survivor detection plates at 30° C. for three days.
The results are shown in Table One in which the concentration of anti-microbial agent is the minimum required to reduce the count of viable cells to less than 10^2 cells cm^-3.
After removing the seven day sample, the samples of the shampoo formulation were challenged with a further 0.2 parts of a similar Pseudomonas aeruginosa culture and incubation at 25° C. was continued. Further one cm^3 samples were removed after 24 hours, 48 hours and 7 days and the number of surviving bacteria was determined in the same manner.

[3] = tested on: Staphylococcus aureus; test: Anti-microbial challenge test in oil in water emulsion (base cream), Staphylococcus aureus; type: cell-based, Staphylococcus aureus (ATCC 6538); details: viable count < 10^2 cells cm^-3; for MLC, SA, 7d: 7 days
Method: as §1, §2
(§3) To aliquots (20 parts) of the emulsion were added various anti-microbial agents at concentrations of 500, 125, 31.25 and 7.8 ppm of active ingredients.
(§4) One sample of each mixture was inoculated with 0.2 parts by volume of a 24 hour culture of Staphylococcus aureus (ATCC 6538) containing 10^8 cells cm^-3. Duplicate samples of each mixture were inoculated with 0.2 parts by volume of a 48 hour culture of Candida albicans (ATCC 10231) containing 10^8 cells cm^-3.
(§5) The samples were then incubated and samples removed after 24 hours, 48 hours and 7 days as described in Examples 1 and 2 with the exception that the samples were not subjected to a further challenge after seven days.

[4] = tested on: Candida albicans; test: Anti-microbial challenge test in oil in water emulsion (base cream), Candida albicans; type: cell-based, Candida albicans (ATCC 10231); details: viable count < 10^2 cells cm^-3; for MLC, CA, 7d: 7 days
Method: as §1, §2, §3, §4, §5

[5] = (S): shampoo stored one month at 40° C.
[6] = (S): shampoo stored one month at 40° C., second challenge
[7] = shampoo stored one month at ambient temperature
[8] = shampoo stored one month at ambient temperature, second challenge

SMILES | Viable bacteria after 24 hr ([1]; Table 3, 125 ppm) | Viable bacteria after 48 hr ([1]; Table 3, 125 ppm) | Viable bacteria after 7 days ([1]; Table 3, 125 ppm) | Viable bacteria after 24 hr ([1]; Table 3, 500 ppm) | Viable bacteria after 48 hr ([1]; Table 3, 500 ppm) | Viable bacteria after 7 days ([1]; Table 3, 500 ppm) | also measured
Cc1csc(=S)n1[O-].Cc1csc(=S)n1[O-].Cc1csc(=S)n1[O-].[Y+3] [Example 6] | 4.5 E4 | > 1.0 E4 | < 3.0 E4 | 1.4 E4 | > 3.0 E4 | < 3.0 E4 | –
Cc1csc(=S)n1[O-].Cc1csc(=S)n1[O-].[Co+2] [Example 13] | 2.1 E3 | < 10 | < 10 | 5.2 E2 | < 10 | < 10 | –
Cc1csc(=S)n1O.Cc1csc(=S)n1O.[Zn] [ZTA, 2:1 complex of 3hydroxy-4-methyl-thiazol-2(3H) thione and zinc] | 6.2 E3 | < 10 | < 10 | 7.6 E3 | < 10 | < 10 | MLC, Challenge 1, 48h [2, 5]: 62.5 ppm w/v; MLC, Challenge 1, 7d [2, 5]: 62.5 ppm w/v; MLC, Challenge 2, 48h [2, 6]: 62.5 ppm w/v; MLC, Challenge 2, 7d [2, 6]: 62.5 ppm w/v; MLC, Challenge 1, 48h [2, 7]: 7.8 ppm w/v; MLC, Challenge 1, 7d [2, 7]: 7.8 ppm w/v; MLC, Challenge 2, 24h ([2]; shampoo stored one month at ambient temperature, second challenge, 24 h): 31.25 ppm w/v; MLC, Challenge 2, 48h [2, 8]: 31.25 ppm w/v; MLC, Challenge 2, 7d [2, 8]: 31.25 ppm w/v; MLC, SA, 24h [3]: 500 ppm w/v; MLC, SA, 48h [3]: 31.25 ppm w/v; MLC, SA, 7d [3]: 7.8 ppm w/v; MLC, CA, 24h [4]: 31.25 ppm w/v; MLC, CA, 48h [4]: 31.25 ppm w/v; MLC, CA, 7d [4]: 31.25 ppm w/v
Cc1csc(=S)n1[O-].Cc1csc(=S)n1[O-].Cc1csc(=S)n1[O-].[In+3] [Example 11] | 9.1 E2 | < 10 | < 10 | < 10 | < 10 | < 10 | –
Cc1csc(=S)n1[O-].Cc1csc(=S)n1[O-].[Zn+2] [Example 14] | 3.3 E3 | < 10 | < 10 | 4.4 E3 | < 10 | < 10 | –
Cc1csc(=S)n1[O-].Cc1csc(=S)n1[O-].Cc1csc(=S)n1[O-].[Sc+3] [Example 9] | 2.6 E3 | 8.0 | < 10 | 2.0 E3 | 1.7 E2 | < 10 | –
Cc1csc(=S)n1O [Example 4, 3hydroxy-4-methylthiazol-2(3H)-thione] | 1.7 E4 | > 3.0 E4 | > 3.0 E4 | 1.2 E4 | > 3.0 E4 | > 3.0 E4 | –
On1ccccc1=S [SP, sodium salt of 1hydroxy-2-pyridinethione] | – | – | – | – | – | – | MLC, SA, 24h [3]: > 500 ppm w/v; MLC, SA, 48h [3]: 500 ppm w/v; MLC, SA, 7d [3]: 125 ppm w/v; MLC, CA, 24h [4]: 500 ppm w/v; MLC, CA, 48h [4]: 500 ppm w/v; MLC, CA, 7d [4]: 31.25 ppm w/v
Cc1csc(=S)n1[O-].Cc1csc(=S)n1[O-].Cc1csc(=S)n1[O-].[Co+3] [Example 8] | 2.1 E3 | < 10 | < 10 | 1.2 E3 | < 10 | < 10 | –
[O-]n1ccccc1=S.[O-]n1ccccc1=S.[Zn+2] [ZP, 1:2 complex of zinc with 1hydroxy-2-pyridinethione] | – | – | – | – | – | – | MLC, SA, 24h [3]: > 500 ppm w/v; MLC, SA, 48h [3]: > 500 ppm w/v; MLC, SA, 7d [3]: 500 ppm w/v; MLC, CA, 24h [4]: 500 ppm w/v; MLC, CA, 48h [4]: 500 ppm w/v; MLC, CA, 7d [4]: 31.25 ppm w/v
Cc1csc(=S)n1[O-].Cc1csc(=S)n1[O-].[O]=[V+2] [Example 12] | 1.5 E4 | > 3.0 E4 | 8.3 E5 | 1.3 E3 | < 10 | < 10 | –
Cc1csc(=S)n1[O-].Cc1csc(=S)n1[O-].[Mn+2] [Example 7] | 2.4 E4 | > 3.0 E4 | > 3.0 E4 | 3.5 E4 | > 3.0 E4 | > 3.0 E4 | –
CN(O)C(=S)c1ccccc1.[Ag] [Example 15, 1:1 silver complex of N-methyl-N-hydroxythiobenzamide] | – | – | – | – | – | – | Viable bacteria after 24 hrs ([1]; Table 4, 7.13 ppm): < 10; Viable bacteria after 48 hrs ([1]; Table 4, 7.13 ppm): < 10; Viable bacteria after 7 days ([1]; Table 4, 7.13 ppm): < 10; Viable bacteria after 24 hrs ([1]; Table 4, 31.25 ppm): < 10; Viable bacteria after 48 hrs ([1]; Table 4, 31.25 ppm): < 10; Viable bacteria after 7 days ([1]; Table 4, 31.25 ppm): < 10; Viable bacteria after 24 hrs ([1]; Table 4, 125 ppm): < 10; Viable bacteria after 48 hrs ([1]; Table 4, 125 ppm): < 10; Viable bacteria after 7 days ([1]; Table 4, 125 ppm): < 10; Viable bacteria after 24 hrs ([1]; Table 4, 500 ppm): < 10; Viable bacteria after 48 hrs ([1]; Table 4, 500 ppm): < 10; Viable bacteria after 7 days ([1]; Table 4, 500 ppm): < 10
